Measurements taken from the supplement of paper PMC10627819.

Legend:
B. subtilis 168 [1] = assay: fitness (endpoint OD595 vs no drug) (fraction); higher = more growth
How it was run: (§1)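 Fitness was defined as the optical density at the transition into stationary phase relative to the robust mean of no-drug control wells. Values were capped at 1. Cultures were started at OD595 0.01 in 384-well plates (30 µl, or 55 µl for S. pneumoniae) in TSB, LB Lennox or CY at 37 °C. OD595 was recorded every 30 min over 14 h, with the first reading subtracted as background.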

S. pneumoniae D39V [2] = assay: as above
How it was run: as §1

S. aureus Newman [3] = assay: as above
How it was run: as §1

S. aureus DSM 20231 [4] = assay: as above
How it was run: as §1

B. subtilis 168 [5] = assay: Bliss interaction score (quartile over a dose matrix) (fitness difference); higher = more antagonism (negative = synergy)
How it was run: (§2)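 At entry into stationary phase, OD595 was recorded and divided by the robust mean of the no-drug wells on that plate, with any value above 1 set to 1. This gives the fitness measure used throughout. Single-drug fitness was inferred from combination data, and the Bliss score, observed minus product-expected fitness, is shown as quartiles across technical, biological and donor/recipient replicates.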

S. pneumoniae D39V [6] = assay: as above
How it was run: as §2

S. aureus Newman [7] = assay: as above
How it was run: as §2

S. aureus DSM 20231 [8] = assay: as above
How it was run: as §2
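Throughout, for Bliss interaction score (quartile over a dose matrix): first quartile when negative (synergy) and third quartile when positive (antagonism).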

C[n+]1ccc(-c2cc[n+](C)cc2)cc1 [Paraquat] + COc1ccc(C[C@H](N)C(=O)N[C@H]2[C@@H](O)[C@H](n3cnc4c(N(C)C)ncnc43)O[C@@H]2CO)cc1 [Puromycin]
fitness
Settings	first compound 1.25 µg/mL	first compound 1.5 µg/mL	first compound 2.5 µg/mL	first compound 3 µg/mL	first compound 5 µg/mL	first compound 6 µg/mL
B. subtilis 168 [1], partner 0.39 µg/mL	0.957	–	0.913	–	0.792	–
B. subtilis 168 [1], partner 0.78 µg/mL	0.924	–	0.894	–	0.779	–
B. subtilis 168 [1], partner 1.56 µg/mL	0.883	–	0.858	–	0.747	–
S. aureus DSM 20231 [4], partner 0.39 µg/mL	0.978	–	0.98	–	0.977	–
S. aureus DSM 20231 [4], partner 0.78 µg/mL	0.97	–	≥ 1	–	0.983	–
S. aureus DSM 20231 [4], partner 1.56 µg/mL	0.964	–	≥ 1	–	0.989	–
S. aureus Newman [3], partner 0.39 µg/mL	0.937	–	0.965	–	0.979	–
S. aureus Newman [3], partner 0.78 µg/mL	≥ 1	–	0.99	–	0.981	–
S. aureus Newman [3], partner 1.56 µg/mL	≥ 1	–	0.971	–	0.994	–
S. pneumoniae D39V [2], partner 1 µg/mL	–	0.996	–	≥ 1	–	≥ 1
S. pneumoniae D39V [2], partner 2 µg/mL	–	0.973	–	0.982	–	0.966
S. pneumoniae D39V [2], partner 4 µg/mL	–	0.852	–	0.856	–	0.861

fitness, S. aureus DSM 20231 [4], one replicate
Settings	first compound 1.25 µg/mL	first compound 2.5 µg/mL	first compound 5 µg/mL
partner 3.12 µg/mL	0.926	0.976	0.965
partner 6.24 µg/mL	0.732	0.703	0.689

Settings	Bliss interaction score
B. subtilis 168 [5]	0.0238
S. aureus DSM 20231 [8]	0.0717
S. aureus Newman [7]	0.0892
S. pneumoniae D39V [6]	0.135

C[n+]1ccc(-c2cc[n+](C)cc2)cc1 [Paraquat] + Cc1cc(NS(=O)(=O)c2ccc(N)cc2)no1 [Sulfamethoxazol]
fitness, one replicate
Settings	first compound 1.25 µg/mL	first compound 2.5 µg/mL	first compound 5 µg/mL
B. subtilis 168 [1], partner 0.5 µg/mL	0.922	≥ 1	0.82
S. aureus Newman [3], partner 8 µg/mL	0.949	0.818	0.874

fitness
Settings	partner 1 µg/mL	partner 2 µg/mL	partner 4 µg/mL
B. subtilis 168 [1], first compound 1.25 µg/mL	0.928	0.901	0.976
B. subtilis 168 [1], first compound 2.5 µg/mL	0.901	0.883	0.911
B. subtilis 168 [1], first compound 5 µg/mL	0.821	0.823	0.853
S. aureus DSM 20231 [4], first compound 1.25 µg/mL	0.952	0.959	0.946
S. aureus DSM 20231 [4], first compound 2.5 µg/mL	0.882	0.866	0.842
S. aureus DSM 20231 [4], first compound 5 µg/mL	0.812	0.868	0.885
S. aureus Newman [3], first compound 1.25 µg/mL	0.977	0.946	0.915
S. aureus Newman [3], first compound 2.5 µg/mL	0.985	0.964	–
S. aureus Newman [3], first compound 5 µg/mL	0.928	0.969	0.881
S. pneumoniae D39V [2], first compound 1.5 µg/mL	0.979	0.971	0.926
S. pneumoniae D39V [2], first compound 3 µg/mL	0.966	0.992	0.931
S. pneumoniae D39V [2], first compound 6 µg/mL	0.995	0.986	0.94

Settings	Bliss interaction score
B. subtilis 168 [5]	0.0341
S. aureus DSM 20231 [8]	-0.0548
S. aureus Newman [7]	0.0523
S. pneumoniae D39V [6]	-0.0314

Cn1c2cccc(=O)c-2nc2ccccc21 [Pyocyanin] + CC1=C\[C@@H](O)CC(=O)Cc2nc(co2)C(=O)N2CCC=C2C(=O)O[C@H](C(C)C)[C@H](C)/C=C/C(=O)NC\C=C\1 [Virginiamycin M1]
fitness
Settings	B. subtilis 168 [1]	S. aureus DSM 20231 [4]	S. aureus Newman [3]	S. pneumoniae D39V [2]
first compound 0.325 µg/mL, partner 0.5 µg/mL	–	–	–	≥ 1
first compound 0.325 µg/mL, partner 1 µg/mL	–	–	–	≥ 1
first compound 0.325 µg/mL, partner 2 µg/mL	–	–	–	0.969
first compound 0.65 µg/mL, partner 0.5 µg/mL	–	–	–	≥ 1
first compound 0.65 µg/mL, partner 1 µg/mL	–	–	–	≥ 1
first compound 0.65 µg/mL, partner 2 µg/mL	–	–	–	0.992
first compound 1.25 µg/mL, partner 0.0625 µg/mL	0.924	0.883	0.823	–
first compound 1.25 µg/mL, partner 0.125 µg/mL	0.89	0.923	0.833	–
first compound 1.25 µg/mL, partner 0.25 µg/mL	0.885	0.808	0.823	–
first compound 1.3 µg/mL, partner 2 µg/mL	–	–	–	0.828
first compound 2.5 µg/mL, partner 0.0625 µg/mL	0.862	0.854	0.752	–
first compound 2.5 µg/mL, partner 0.125 µg/mL	0.84	0.86	0.766	–
first compound 2.5 µg/mL, partner 0.25 µg/mL	0.857	0.89	0.776	–
first compound 5 µg/mL, partner 0.0625 µg/mL	0.734	0.562	0.369	–
first compound 5 µg/mL, partner 0.125 µg/mL	0.741	0.589	0.422	–
first compound 5 µg/mL, partner 0.25 µg/mL	0.758	0.621	0.352	–

fitness, one replicate
Settings	partner 0.15 µg/mL	partner 0.3 µg/mL	partner 0.5 µg/mL	partner 1 µg/mL	partner 2 µg/mL
S. aureus DSM 20231 [4], first compound 1.25 µg/mL	–	–	0.913	0.882	–
S. aureus DSM 20231 [4], first compound 2.5 µg/mL	–	–	0.816	0.787	–
S. aureus DSM 20231 [4], first compound 5 µg/mL	–	–	0.556	0.616	–
S. aureus Newman [3], first compound 1.25 µg/mL	–	–	0.921	≥ 1	0.92
S. aureus Newman [3], first compound 2.5 µg/mL	–	–	0.939	0.965	0.952
S. aureus Newman [3], first compound 5 µg/mL	–	–	0.844	0.885	0.734
S. pneumoniae D39V [2], first compound 0.325 µg/mL	≥ 1	0.988	–	–	–
S. pneumoniae D39V [2], first compound 0.65 µg/mL	≥ 1	0.994	–	–	–
S. pneumoniae D39V [2], first compound 1.3 µg/mL	0.935	0.859	0.878	0.815	–

Settings	Bliss interaction score
B. subtilis 168 [5]	-0.0635
S. aureus DSM 20231 [8]	-0.0636
S. aureus Newman [7]	0.0515
S. pneumoniae D39V [6]	0.0505

Cn1c2cccc(=O)c-2nc2ccccc21 [Pyocyanin] + CN(N=O)C(=O)N[C@@H](C=O)[C@@H](O)[C@H](O)[C@H](O)CO [Streptozotocin]
fitness, one replicate
Settings	partner 0.15 µg/mL	partner 0.3 µg/mL	partner 0.6 µg/mL	partner 1.2 µg/mL	partner 2.4 µg/mL	partner 4.8 µg/mL
B. subtilis 168 [1], first compound 1.25 µg/mL	0.99	0.918	0.96	–	–	–
B. subtilis 168 [1], first compound 2.5 µg/mL	0.777	0.903	0.873	–	–	–
B. subtilis 168 [1], first compound 5 µg/mL	0.687	0.729	0.777	–	–	–
S. pneumoniae D39V [2], first compound 1.3 µg/mL	–	–	–	0.626	0.683	0.783

fitness
Settings	partner 0.15 µg/mL	partner 0.3 µg/mL	partner 0.6 µg/mL	partner 1.2 µg/mL	partner 2.4 µg/mL	partner 4.8 µg/mL
S. aureus DSM 20231 [4], first compound 1.25 µg/mL	0.836	0.852	0.711	–	–	–
S. aureus DSM 20231 [4], first compound 2.5 µg/mL	0.803	0.772	0.676	–	–	–
S. aureus DSM 20231 [4], first compound 5 µg/mL	0.626	0.617	0.517	–	–	–
S. aureus Newman [3], first compound 1.25 µg/mL	0.788	0.633	0.494	–	–	–
S. aureus Newman [3], first compound 2.5 µg/mL	0.695	0.591	0.385	–	–	–
S. aureus Newman [3], first compound 5 µg/mL	0.265	0.249	0.167	–	–	–
S. pneumoniae D39V [2], first compound 0.325 µg/mL	–	–	–	0.951	0.912	0.928
S. pneumoniae D39V [2], first compound 0.65 µg/mL	–	–	–	0.973	0.964	0.965

Settings	Bliss interaction score
B. subtilis 168 [5]	-0.0597
S. aureus DSM 20231 [8]	0.0692
S. aureus Newman [7]	-0.0417
S. pneumoniae D39V [6]	-0.0715
